Values of other authors as cited in patent US20080260785A1, “PAROXETINE COMPOSITIONS” (priority 2005, published 2008).

Details: hydrochloride hemihydrate

SMILES: Cl.Fc1ccc([C@@H]2CCNC[C@H]2COc2ccc3c(c2)OCO3)cc1 [Paroxetine, (−)-trans-4R-(4′-fluorophenyl)-3S-[(3′,4′-methylenedioxyphenoxy)methyl]piperidine]
- solubility in water: 5400 µg/mL
